“And” between values parts separate entries of the source, which are not always exact repeats. Equal values may be shown once. Read-outs that look alike come from different tables or passages of the source. Bridge positions count the residues as written; N and C are the ends. Square brackets hold non-standard residues; d marks the D form. Peptide text beside a SMILES is read from it. * marks the point of attachment. X1 = C=CCN1CC[C@]23c4c5ccc(O)c4O[C@H]2[C@H](N*)CC[C@@]3(O)[C@H]1C5
Tests used:
human KOR E297A [1] = target: T1, human KOR E297A (Homo sapiens, UniProt P41145, E297A); type: cell-based; conditions: HEK-293T, KOR E297A
T1 construct: FLAG; expressed in transfected cells; host or cells: HEK293T
T1 sequence (P41145 whole entry E297A): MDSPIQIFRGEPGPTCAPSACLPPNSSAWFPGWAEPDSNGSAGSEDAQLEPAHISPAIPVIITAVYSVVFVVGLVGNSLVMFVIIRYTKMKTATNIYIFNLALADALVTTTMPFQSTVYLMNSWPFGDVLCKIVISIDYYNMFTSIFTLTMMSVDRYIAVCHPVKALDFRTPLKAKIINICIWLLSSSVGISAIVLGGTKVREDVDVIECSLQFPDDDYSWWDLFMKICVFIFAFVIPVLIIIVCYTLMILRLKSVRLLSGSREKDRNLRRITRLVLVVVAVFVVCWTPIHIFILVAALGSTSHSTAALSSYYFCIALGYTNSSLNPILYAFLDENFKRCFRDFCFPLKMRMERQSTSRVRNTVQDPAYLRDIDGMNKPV

human KOR K227A [2] = target: T2, human KOR K227A (Homo sapiens, UniProt P41145, K227A); assay: BRET β-arrestin-2 biosensor assay; type: cell-based
T2 construct: FLAG; expressed in transfected cells; host or cells: HEK293 / HEK293T, transient
T2 sequence (P41145 whole entry K227A): as the sequence (P41145 whole entry E297A) above, with K227A, A297E counted along it

human KOR Y312A [3] = target: T3, human KOR Y312A (Homo sapiens, UniProt P41145, Y312A); assay: BRET β-arrestin-2 biosensor assay; type: cell-based
T3 construct: FLAG; expressed in transfected cells; host or cells: HEK293T
T3 sequence (P41145 whole entry Y312A): as the sequence (P41145 whole entry E297A) above, with A297E, Y312A counted along it

human KOR L309A [4] = target: T4, human KOR L309A (Homo sapiens, UniProt P41145, L309A); assay: BRET β-arrestin-2 biosensor assay; type: cell-based; conditions: KOR L309A
T4 construct: FLAG; expressed in transfected cells; host or cells: HEK293T
T4 sequence (P41145 whole entry L309A): as the sequence (P41145 whole entry E297A) above, with A297E, L309A counted along it

human KOR E297A [5] = target: T1, human KOR E297A; assay: BRET β-arrestin-2 biosensor assay; type: cell-based; conditions: KOR E297A
human KOR I135A = target: T5, human KOR I135A (Homo sapiens, UniProt P41145, I135A); assay: BRET β-arrestin-2 biosensor assay; type: cell-based
T5 construct: FLAG; expressed in transfected cells; host or cells: HEK293 / HEK293T, transient
T5 sequence (P41145 whole entry I135A): as the sequence (P41145 whole entry E297A) above, with I135A, A297E counted along it

mouse KOR, GαoB = mouse KOR, GαoB (Mus musculus, UniProt P33534); assay: TRUPATH BRET G protein assay, GαoB; type: cell-based; conditions: read-out: Emax (%) GαoB
mouse KOR, GαoB, sequence (P33534 whole entry): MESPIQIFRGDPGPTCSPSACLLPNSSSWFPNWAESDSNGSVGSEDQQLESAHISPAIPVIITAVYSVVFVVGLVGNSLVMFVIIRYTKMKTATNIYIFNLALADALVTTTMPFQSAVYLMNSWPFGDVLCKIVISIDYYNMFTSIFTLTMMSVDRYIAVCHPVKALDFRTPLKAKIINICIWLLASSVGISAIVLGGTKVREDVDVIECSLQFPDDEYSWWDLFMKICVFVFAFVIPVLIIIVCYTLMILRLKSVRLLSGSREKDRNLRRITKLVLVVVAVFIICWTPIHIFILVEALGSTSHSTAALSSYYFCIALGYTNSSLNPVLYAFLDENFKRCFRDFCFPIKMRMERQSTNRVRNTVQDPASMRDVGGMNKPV
mouse KOR, GαoB, sequence (P09471 2-354 partner): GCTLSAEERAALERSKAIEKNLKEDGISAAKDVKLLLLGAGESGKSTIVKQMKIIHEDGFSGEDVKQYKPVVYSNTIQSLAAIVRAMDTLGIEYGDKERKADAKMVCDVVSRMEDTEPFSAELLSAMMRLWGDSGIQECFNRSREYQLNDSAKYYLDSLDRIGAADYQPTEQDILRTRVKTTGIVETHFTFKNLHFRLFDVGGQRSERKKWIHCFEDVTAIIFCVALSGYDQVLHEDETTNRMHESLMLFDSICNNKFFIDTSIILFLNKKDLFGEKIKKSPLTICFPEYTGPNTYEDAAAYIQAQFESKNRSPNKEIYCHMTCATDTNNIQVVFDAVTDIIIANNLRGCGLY

male SWISS mice [6] = assay: Paw thickness 60 min after formalin injection; type: in vivo, mouse; conditions: for Paw thickness: individual mice, listed as DNCP-ß-NalA (1)
Experimental: Sixty min after injection of formalin to male mice, maximal paw thickness of the right hind paw (i.e., formalin-injected hind paw) was measured using a digital micrometer (FixPoint, Vienna, Austria). Data are expressed in mm.

human KOR WT = target: T6, human KOR WT (Homo sapiens, UniProt P41145); assay: cAMP inhibition assay normalized to salvinorin A; type: cell-based; conditions: KOR WT; normalized to salvinorin A
T6 construct: FLAG; expressed in transfected cells; host or cells: HEK293T, transient
T6 sequence (P41145 whole entry): as the sequence (P41145 whole entry E297A) above, with A297E counted along it

human KOR K227A [7] = target: T2, human KOR K227A; type: cell-based; conditions: HEK-293T
human KOR M142A = target: T7, human KOR M142A (Homo sapiens, UniProt P41145, M142A); type: cell-based; conditions: HEK-293T
T7 construct: FLAG; expressed in transfected cells; host or cells: HEK293 / HEK293T, transient
T7 sequence (P41145 whole entry M142A): as the sequence (P41145 whole entry E297A) above, with M142A, A297E counted along it

human KOR I316A [8] = target: T8, human KOR I316A (Homo sapiens, UniProt P41145, I316A); type: cell-based; conditions: HEK-293T
T8 construct: FLAG; expressed in transfected cells; host or cells: HEK293 / HEK293T, transient
T8 sequence (P41145 whole entry I316A): as the sequence (P41145 whole entry E297A) above, with A297E, I316A counted along it

male SWISS mice [9] = assay: Rotarod test (motor coordination/sedation); type: in vivo, mouse; conditions: DNCP-β-NalA(1) 3.8 and 7.6, U50,488 5.4 µmol kg^−1 s.c.
Experimental: The rotarod test was used to evaluate coordinated locomotion and potential sedation induced by test drugs. […] Male SWISS mice (8–10 weeks old, 30–35 g body weight, n = 21 mice) were habituated to the equipment in two training sessions (30 min apart) one day before testing. On the experimental day, male mice were placed on the rotarod, and treadmill was accelerated from 4 to 40 rotations-per-minute over a period of 5 min. […] Decreased latencies to fall in the rotarod test indicate impaired motor performance. A 300 s cut-off time was used. The rotarod data are expressed as percentage (%) changes from the rotarod latencies obtained before (baseline) and after drug administration (test, T) were calculated as 100*(T/B).

human MOR = target: T9, human MOR (Homo sapiens, UniProt P35372); assay: Schild regression vs DAMGO in [35S]GTPγS binding assay, CHO membranes; type: biochemical; conditions: for log (A'/A-1): Schild plot Figure S14d
T9 construct: expressed in transfected cells
T9 sequence (P35372 whole entry): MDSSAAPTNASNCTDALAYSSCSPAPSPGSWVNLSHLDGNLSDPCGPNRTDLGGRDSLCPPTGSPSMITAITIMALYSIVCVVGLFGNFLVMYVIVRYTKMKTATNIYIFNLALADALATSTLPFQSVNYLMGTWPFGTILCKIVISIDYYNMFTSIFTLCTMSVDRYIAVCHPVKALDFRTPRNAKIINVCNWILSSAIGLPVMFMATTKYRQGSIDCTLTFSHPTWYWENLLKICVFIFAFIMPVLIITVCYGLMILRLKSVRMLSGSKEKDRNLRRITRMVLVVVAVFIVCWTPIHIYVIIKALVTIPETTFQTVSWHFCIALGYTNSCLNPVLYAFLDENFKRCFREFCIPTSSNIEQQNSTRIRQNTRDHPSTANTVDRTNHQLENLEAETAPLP

human KOR E209A = target: T10, human KOR E209A (Homo sapiens, UniProt P41145, E209A); type: cell-based; conditions: HEK-293T, KOR E209A
T10 construct: FLAG; expressed in transfected cells; host or cells: HEK293 / HEK293T, transient
T10 sequence (P41145 whole entry E209A): as the sequence (P41145 whole entry E297A) above, with E209A, A297E counted along it

human KOR Y320A = target: T11, human KOR Y320A (Homo sapiens, UniProt P41145, Y320A); assay: BRET β-arrestin-2 biosensor assay; type: cell-based
T11 construct: FLAG; expressed in transfected cells; host or cells: HEK293 / HEK293T, transient
T11 sequence (P41145 whole entry Y320A): as the sequence (P41145 whole entry E297A) above, with A297E, Y320A counted along it

mouse MOR = target: T12, mouse MOR (Mus musculus, UniProt P42866); assay: Schild regression vs DAMGO in cAMP assay, HEK293 cells; type: cell-based; conditions: for log (A'/A-1): Schild plot Figure S14c; for average functional affinity: from pA2
T12 construct: expressed in transfected cells
T12 sequence (P42866 whole entry): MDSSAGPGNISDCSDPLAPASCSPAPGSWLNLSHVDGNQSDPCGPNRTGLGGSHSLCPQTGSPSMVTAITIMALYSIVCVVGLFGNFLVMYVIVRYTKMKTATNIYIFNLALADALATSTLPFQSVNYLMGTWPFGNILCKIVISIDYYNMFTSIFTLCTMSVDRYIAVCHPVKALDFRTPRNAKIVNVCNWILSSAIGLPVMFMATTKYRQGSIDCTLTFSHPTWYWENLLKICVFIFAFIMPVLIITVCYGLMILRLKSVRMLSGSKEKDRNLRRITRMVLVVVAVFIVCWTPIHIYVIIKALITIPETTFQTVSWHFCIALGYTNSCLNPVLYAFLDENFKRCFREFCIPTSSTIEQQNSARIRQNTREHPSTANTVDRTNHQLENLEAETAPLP

human KOR L309A [10] = target: T4, human KOR L309A; type: cell-based; conditions: HEK-293T, KOR L309A
human KOR Q115A = target: T13, human KOR Q115A (Homo sapiens, UniProt P41145, Q115A); type: cell-based; conditions: HEK-293T
T13 construct: FLAG; expressed in transfected cells; host or cells: HEK293 / HEK293T, transient
T13 sequence (P41145 whole entry Q115A): as the sequence (P41145 whole entry E297A) above, with Q115A, A297E counted along it

human KOR I316A [11] = target: T8, human KOR I316A; assay: BRET β-arrestin-2 biosensor assay; type: cell-based
mouse KOR, Gαi1 = mouse KOR, Gαi1 (Mus musculus, UniProt P33534); assay: TRUPATH BRET G protein assay, Gαi1; type: cell-based; conditions: read-out: Emax (%) Gαi1
mouse KOR, Gαi1, sequence (P33534 whole entry): as the sequence (P33534 whole entry) above
mouse KOR, Gαi1, sequence (P63096 2-354 partner): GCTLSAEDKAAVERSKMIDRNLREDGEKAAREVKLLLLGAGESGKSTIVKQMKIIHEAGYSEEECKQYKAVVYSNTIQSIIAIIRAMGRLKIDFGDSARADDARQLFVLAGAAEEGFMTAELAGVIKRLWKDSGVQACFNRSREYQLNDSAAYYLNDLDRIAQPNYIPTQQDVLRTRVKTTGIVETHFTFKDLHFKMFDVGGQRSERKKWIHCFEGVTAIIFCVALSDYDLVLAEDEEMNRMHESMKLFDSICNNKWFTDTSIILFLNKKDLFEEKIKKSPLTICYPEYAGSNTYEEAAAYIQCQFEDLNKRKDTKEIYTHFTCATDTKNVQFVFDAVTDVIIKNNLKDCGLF

human KOR Y312A [12] = target: T3, human KOR Y312A; type: cell-based
mouse KOR, Gαz = mouse KOR, Gαz (Mus musculus, UniProt P33534); assay: TRUPATH BRET G protein assay, Gαz; type: cell-based; conditions: Gαz subtype
mouse KOR, Gαz, sequence (P33534 whole entry): as the sequence (P33534 whole entry) above
mouse KOR, Gαz, sequence (P19086 2-355 partner): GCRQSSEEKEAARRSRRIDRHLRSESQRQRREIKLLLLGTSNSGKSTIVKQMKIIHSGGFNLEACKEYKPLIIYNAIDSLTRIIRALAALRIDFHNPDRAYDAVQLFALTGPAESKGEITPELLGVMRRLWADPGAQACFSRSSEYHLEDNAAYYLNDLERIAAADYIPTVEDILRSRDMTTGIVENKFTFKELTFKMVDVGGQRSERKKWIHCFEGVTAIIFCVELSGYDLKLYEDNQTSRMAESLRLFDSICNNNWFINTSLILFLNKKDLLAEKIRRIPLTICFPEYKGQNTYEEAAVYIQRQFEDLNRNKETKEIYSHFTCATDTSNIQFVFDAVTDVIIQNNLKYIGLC

C=CCN1CC[C@]23c4c5ccc(O)c4O[C@H]2[C@H](NC(=O)[C@@H](Cc2ccccc2)NC(=O)[C@@H](NC(=O)[C@@H]2CSCC(=O)N[C@@H](Cc4ccc(O)cc4)C(=O)N[C@@H](C)C(=O)N[C@H](Cc4ccc(O)cc4)C(=O)N[C@@H]([C@@H](C)O)C(=O)N[C@@H]([C@@H](C)O)C(=O)N2)[C@@H](C)O)CC[C@@]3(O)[C@H]1C5 [DNCP-β-NalA(1)] ({CH2CO}-YA[dY]TTCT[dF]-X1; thioether N-6)
Emax (human KOR E297A [1]): 96.28 ± 0.53% | Emax (human KOR K227A [2]): 16.9 ± 2.26% | Emax (%) β-arrestin-2 (human KOR Y312A [3]): devoid of arrestin recruitment | BRET-βarr2 recruitment (human KOR Y312A [3]; Log [ligand] (M) -5, replicates): 0.2189 and 0.2059 and 0.2229 and 0.2169 | BRET-βarr2 recruitment (human KOR Y312A [3]; Log [ligand] (M) -7, replicates): 0.2499 (2×) and 0.2479 and 0.2279 and 0.2289 and 0.2269 | BRET-βarr2 recruitment (human KOR Y312A [3]; Log [ligand] (M) -8, replicates): 0.2479 and 0.2309 and 0.2579 and 0.2119 and 0.2179 and 0.2099 | BRET-βarr2 recruitment (human KOR Y312A [3]; Log [ligand] (M) -9, replicates): 0.2369 and 0.2529 and 0.2379 and 0.2309 and 0.2499 and 0.2069 | BRET-βarr2 recruitment (human KOR Y312A [3]; Log [ligand] (M) -10, replicates): 0.2429 and 0.2419 and 0.2489 and 0.2119 and 0.2309 and 0.2049 | BRET-βarr2 recruitment (human KOR Y312A [3]; Log [ligand] (M) -11, replicates): 0.2319 and 0.2289 and 0.2379 and 0.2249 and 0.2229 and 0.2019 | BRET-βarr2 recruitment (human KOR Y312A [3]; Log [ligand] (M) -12, replicates): 0.2219 and 0.2179 and 0.2429 and 0.2239 and 0.2299 and 0.2119 | Emax (human KOR L309A [4]): 62.2 ± 1.08% | Emax (human KOR E297A [5]): 64.6 ± 1.35% | BRET-βarresin2 recruitment (human KOR I135A; Log [ligand] (M) -5, single replicates): 0.1789 and 0.1779 and 0.1349 and 0.1369 (2×) | BRET-βarresin2 recruitment (human KOR I135A; Log [ligand] (M) -6, single replicates): 0.1739 and 0.1699 and 0.1669 and 0.1229 and 0.1319 and 0.1359 | BRET-βarresin2 recruitment (human KOR I135A; Log [ligand] (M) -7, single replicates): 0.1699 (2×) and 0.1609 and 0.1309 and 0.1289 and 0.1299 | BRET-βarresin2 recruitment (human KOR I135A; Log [ligand] (M) -8, single replicates): 0.1669 and 0.1659 and 0.1729 and 0.1269 and 0.1239 and 0.1349 | BRET-βarresin2 recruitment (human KOR I135A; Log [ligand] (M) -9, single replicates): 0.1669 (2×) and 0.1649 and 0.1249 and 0.1239 and 0.1259 | BRET-βarresin2 recruitment (human KOR I135A; Log [ligand] (M) -10, single replicates): 0.1689 and 0.1639 (2×) and 0.1279 and 0.1309 and 0.1339 | BRET-βarresin2 recruitment (human KOR I135A; Log [ligand] (M) -11, single replicates): 0.1699 and 0.1669 and 0.1689 and 0.1249 and 0.1279 (2×) | BRET-βarresin2 recruitment (human KOR I135A; Log [ligand] (M) -12, single replicates): 0.1519 and 0.1569 (2×) and 0.1249 (2×) and 0.1259 | Emax (mouse KOR, GαoB): 76 ± 6% | Paw thickness (male SWISS mice [6]; 0.8 µmol/kg): 3.47 mm and 4.51 mm and 3.9 mm and 4.44 mm and 3.64 mm and 4.36 mm | reduction of paw thickness vs saline (male SWISS mice [6]; 1.9 µmol kg^−1 s.c.): 12 ± 2% | Paw thickness (male SWISS mice [6]; 1.9 µmol/kg): 4.04 mm and 4.14 mm and 3.53 mm and 3.7 mm and 3.82 mm | reduction of paw thickness vs saline (male SWISS mice [6]; 3.8 µmol kg^−1 s.c.): 17 ± 3% | antagonism of anti-inflammatory effect by nor-BNI (male SWISS mice [6]; nor-BNI 13.6 µmol kg^−1 s.c. pretreatment): significantly reversed by pre-treatment with nor-BNI | Emax (human KOR WT): 100.6 ± 0.9% | Emax (human KOR K227A [7]): 47.9 ± 1.19% | Emax (human KOR M142A): 69.4 ± 1.97% | Emax (human KOR I316A [8]): 85.75 ± 0.72% | rotarod performance / motor behavior (male SWISS mice [9]): no changes in the motor behavior | log (A'/A-1) (human MOR; log B -7): 1.45 | log (A'/A-1) (human MOR; log B -7.5): 0.36 | log (A'/A-1) (human MOR; log B -8): -0.07 | average functional affinity (human MOR; from pA2): 13 nM | Schild linear regression slope (human MOR; vs DAMGO): 1.5 | Emax (human KOR E209A): 99.31 ± 0.52% | Emax (human KOR Y320A): 83.5 ± 4.81% | log (A'/A-1) (mouse MOR; log B -6.5): 2.497 | log (A'/A-1) (mouse MOR; log B -7): 1.821 | log (A'/A-1) (mouse MOR; log B -7.5): 1.578 | log (A'/A-1) (mouse MOR; log B -8): 1.074 | average functional affinity (mouse MOR): 0.8 nM | average functional affinity (mouse MOR; authors' response in peer review file): 0.794 nM | Schild linear regression slope (mouse MOR; vs DAMGO): 0.9 | Emax (human KOR L309A [10]): 95.98 ± 0.44% | Emax (human KOR Q115A): 90.2 ± 1.46% | Emax (human KOR I316A [11]): 22.7 ± 1.59% | Emax (mouse KOR, Gαi1): 81% | Emax (human KOR Y312A [12]; HEK-293T, KOR Y312A): 82.46 ± 0.65% | loss of potency in G protein activation (human KOR Y312A [12]; Y312A vs WT): 4 fold | highest potency (mouse KOR, Gαz): picomolar range

Reference: paper PMC10698194 (Nature Communications, 2023)
